# Like-named read-outs stand apart in the source and are kept apart here.
# Experiments:
# [1] = review of non-Good Laboratory Practice preclinical assays for cardiac toxicity; conditions: review prompted by elevated troponin T
# Excerpt: Some patients experienced elevated troponin T levels, leading to a review of troponin T levels, electrocardiogram data, clinical summaries, and non-Good Laboratory Practice preclinical assays. […] This also corresponded with a lack of cardiotoxicity reported in preclinical studies in animals[17] and this was not a toxicity previously reported with BET inhibitors.[35] It was concluded that the cause of troponin T elevation may be multifactorial, but not clinically significant to preclude further clinical development.[17]
# [2] = tested on: patients with DLBCL; assay: phase Ia DLBCL extension: tumor response (RECIL 2017); assay type: in vivo, human
# Experimental: (§1) PFS was measured for the period from the start of treatment to the occurrence of progressive disease or death. Tumor response was measured using RECIST 1.1[28] for patients with solid tumors and RECIL 2017[29] for those with DLBCL. OS was assessed in patients with NUT carcinoma; the OS status was to continue until 12 months after the end of the study.
# (§2) Supplementary Table 1. […]
# (§3) • Objective response (OR), defined as complete response (CR) or partial response (PR) with tumor assessment during treatment period for each schedule according to Response Evaluation Criteria in Solid Tumors (RECIST) version 1.1. For DLBCL patients, a minor response according to Response Evaluation Criteria in Lymphoma (RECIL) 2017 was not part of an OR […]
# • Progression-free survival (PFS), defined from date of start of BI 894999 to the date of objective disease progression or death, whichever was earlier, with tumor assessment every 2 cycles (every 6 weeks for Schedule B if no delays or as close as possible to the end of the second of the 2 cycles of treatment if there was a delay) during the treatment period […]
# (§4) AUC0–24, area under the plasma concentration–time curve over the 24-hour dosing interval; AUCτ, ss , area under the plasma concentration–time curve over the dosing interval τ at steady state; AE, adverse event; Cmax, maximal exposure; Cma x , s s , maximal exposure at steady state; DLBCL, diffuse large B- cell lymphoma; DLT, dose-limiting toxicity; mCRPC, metastatic castration-resistant prostate cancer; NUT, nuclear protein in […]
# [3] = tested on: colorectal cancer (CRC) cell lines; design: method as in earlier work; conditions: cited from earlier work
# [4] = tested on: patients with advanced solid tumors (SCLC, CRC, mCRPC, NUT carcinoma); assay: phase Ib expansion: tumor response (RECIST 1.1), PFS, OS; assay type: in vivo, human; conditions: for Best overall response: complete response / Best overall response: not evaluable / Best overall response: partial response / Best overall response: progressive disease / Best overall response: stable disease / Disease control / Median PFS / Objective response / Median OS: phase Ib
# Experimental: as §1, §2, §3
# • Progression-free survival (PFS), defined from date of start of BI 894999 to the date of objective disease progression or death, whichever was earlier, with tumor assessment every 2 cycles (every 6 weeks for Schedule B if no delays or as close as possible to the end of the second of the 2 cycles of treatment if there was a delay) during the treatment period
# Radiological PFS with tumor assessment by bone scan every 4 cycles for mCRPC patients with non-measurable disease by RECIST 1.1 […]
# • Overall survival in patients with NUT carcinoma. This was for patients in the trial after approval of […]
# The overall survival status was to continue until 12 months after the end of trial […]
# as §4
# [5] = tested on: patients with solid tumors; design: method as in PMID 37556913; conditions: cited from earlier work; for maximum tolerated dose (MTD): solid tumors
smiles,measurement,setting,value
CNc1nc(-c2nc3ccc(N4CCN(C)CC4)cc3n2Cc2ccccc2)cn2c(C)nnc12 [BI 894999],preclinical evidence of cardiac toxicity,[1],no preclinical evidence of potential cardiac toxicity
same,patients not assessable,[2]; phase Ia DLBCL n = 18,27.8%
same,patients with partial response (BOR),[2]; phase Ia DLBCL n = 18,5.6%
same,patients with progressive disease,[2]; phase Ia DLBCL n = 18,50.0%
same,patients with stable disease,[2]; phase Ia DLBCL n = 18,16.7%
same,duration of response (DOR) of confirmed PR,"[2]; phase Ia DLBCL, one patient",49 days
same,Best overall response: complete response,"[2]; phase Ia DLBCL, schedule B",0 (0.0) n (%)
same,Best overall response: not evaluable,"[2]; phase Ia DLBCL, schedule B",5 (35.7) n (%)
same,Best overall response: partial response,"[2]; phase Ia DLBCL, schedule B",1 (7.1) n (%)
same,Best overall response: progressive disease,"[2]; phase Ia DLBCL, schedule B",6 (42.9) n (%)
same,Best overall response: stable disease,"[2]; phase Ia DLBCL, schedule B",2 (14.3) n (%)
same,Disease control,"[2]; phase Ia DLBCL, schedule B",3 (21.4) n (%)
same,Objective response,"[2]; phase Ia DLBCL, schedule B",1 (7.1) n (%)
same,Best overall response: complete response,"[2]; phase Ia DLBCL, schedule C",0 (0.0) n (%)
same,Best overall response: not evaluable,"[2]; phase Ia DLBCL, schedule C",0 (0.0) n (%)
same,Best overall response: partial response,"[2]; phase Ia DLBCL, schedule C",0 (0.0) n (%)
same,Best overall response: progressive disease,"[2]; phase Ia DLBCL, schedule C",3 (75.0) n (%)
same,Best overall response: stable disease,"[2]; phase Ia DLBCL, schedule C",1 (25.0) n (%)
same,Disease control,"[2]; phase Ia DLBCL, schedule C",1 (25.0) n (%)
same,Best overall response: complete response,"[2]; phase Ia DLBCL, total",0 (0.0) n (%)
same,Best overall response: not evaluable,"[2]; phase Ia DLBCL, total",5 (27.8) n (%)
same,Best overall response: partial response,"[2]; phase Ia DLBCL, total",1 (5.6) n (%)
same,Best overall response: progressive disease,"[2]; phase Ia DLBCL, total",9 (50.0) n (%)
same,Best overall response: stable disease,"[2]; phase Ia DLBCL, total",3 (16.7) n (%)
same,Disease control,"[2]; phase Ia DLBCL, total",4 (22.2) n (%)
same,Objective response,"[2]; phase Ia DLBCL, total",1 (5.6) n (%)
same,activity against colorectal cancer (CRC) cell lines,[3],demonstrated activity
same,patients with SD,[4]; CRC,2 n
same,observed objective response rate,[4]; NUT carcinoma,< 10%
same,patients not assessable,"[4]; NUT carcinoma, 42 patients",19.0%
same,patients with SD,"[4]; NUT carcinoma, 42 patients",31.0%
same,patients with complete response,"[4]; NUT carcinoma, 42 patients",1 n
same,patients with confirmed CR,"[4]; NUT carcinoma, 42 patients",2.4%
same,patients with disease control,"[4]; NUT carcinoma, 42 patients",16 patients
same,patients with progressive disease,"[4]; NUT carcinoma, 42 patients",42.9%
same,patients with responses,"[4]; NUT carcinoma, 42 patients",7.1%
same,duration of response (DOR) of confirmed CR,"[4]; NUT carcinoma, one patient",253 days
same,duration of response (DOR) of confirmed PR,"[4]; NUT carcinoma, one patient",588 days
same,patients with SD,[4]; SCLC,1 n
same,patients with SD,[4]; mCRPC,2 n
same,duration of response (DOR) of confirmed PR,"[4]; mCRPC, one patient",46 days
same,patients not assessable,[4]; other solid tumor types n = 37,24.3%
same,patients with SD,[4]; other solid tumor types n = 37,13.5%
same,patients with confirmed PR (mCRPC),[4]; other solid tumor types n = 37,2.7%
same,patients with progressive disease,[4]; other solid tumor types n = 37,59.5%
same,patients with confirmed CR (BOR),[4]; phase Ib n = 79,1.3%
same,Best overall response: complete response,[4]; CRC,0 (0.0) n (%)
same,Best overall response: not evaluable,[4]; CRC,2 (14.3) n (%)
same,Best overall response: partial response,[4]; CRC,0 (0.0) n (%)
same,Best overall response: progressive disease,[4]; CRC,10 (71.4) n (%)
same,Best overall response: stable disease,[4]; CRC,2 (14.3) n (%)
same,Disease control,[4]; CRC,2 (14.3) n (%)
same,Median PFS,[4]; CRC,5.6 weeks
same,Objective response,[4]; CRC,0 (0.0) n (%)
same,Best overall response: complete response,[4]; NUT carcinoma (Schedule B),0 (0.0) n (%)
same,Best overall response: not evaluable,[4]; NUT carcinoma (Schedule B),3 (15.0) n (%)
same,Best overall response: partial response,[4]; NUT carcinoma (Schedule B),1 (5.0) n (%)
same,Best overall response: progressive disease,[4]; NUT carcinoma (Schedule B),9 (45.0) n (%)
same,Best overall response: stable disease,[4]; NUT carcinoma (Schedule B),7 (35.0) n (%)
same,Disease control,[4]; NUT carcinoma (Schedule B),8 (40.0) n (%)
same,Median OS,[4]; NUT carcinoma (Schedule B),6.6 weeks
same,Median PFS,[4]; NUT carcinoma (Schedule B),6.9 weeks
same,Objective response,[4]; NUT carcinoma (Schedule B),1 (5.0) n (%)
same,Best overall response: complete response,[4]; NUT carcinoma (Schedule C),1 (4.5) n (%)
same,Best overall response: not evaluable,[4]; NUT carcinoma (Schedule C),5 (22.7) n (%)
same,Best overall response: partial response,[4]; NUT carcinoma (Schedule C),1 (4.5) n (%)
same,Best overall response: progressive disease,[4]; NUT carcinoma (Schedule C),9 (40.9) n (%)
same,Best overall response: stable disease,[4]; NUT carcinoma (Schedule C),6 (27.3) n (%)
same,Disease control,[4]; NUT carcinoma (Schedule C),8 (36.4) n (%)
same,Median OS,[4]; NUT carcinoma (Schedule C),15.4 weeks
same,Median PFS,[4]; NUT carcinoma (Schedule C),7.8 weeks
same,Objective response,[4]; NUT carcinoma (Schedule C),2 (9.1) n (%)
same,Median OS,[4]; NUT carcinoma total,15.4 weeks
same,Best overall response: complete response,[4]; SCLC,0 (0.0) n (%)
same,Best overall response: not evaluable,[4]; SCLC,3 (25.0) n (%)
same,Best overall response: partial response,[4]; SCLC,0 (0.0) n (%)
same,Best overall response: progressive disease,[4]; SCLC,8 (66.7) n (%)
same,Best overall response: stable disease,[4]; SCLC,1 (8.3) n (%)
same,Disease control,[4]; SCLC,1 (8.3) n (%)
same,Median PFS,[4]; SCLC,5.6 weeks
same,Objective response,[4]; SCLC,0 (0.0) n (%)
same,Best overall response: complete response,[4]; mCRPC,0 (0.0) n (%)
same,Best overall response: not evaluable,[4]; mCRPC,4 (36.4) n (%)
same,Best overall response: partial response,[4]; mCRPC,1 (9.1) n (%)
same,Best overall response: progressive disease,[4]; mCRPC,4 (36.4) n (%)
same,Best overall response: stable disease,[4]; mCRPC,2 (18.2) n (%)
same,Disease control,[4]; mCRPC,3 (27.3) n (%)
same,Median PFS,[4]; mCRPC,11.9 weeks
same,Objective response,[4]; mCRPC,1 (9.1) n (%)
same,Best overall response: complete response,[4]; total,1 (1.3) n (%)
same,Best overall response: not evaluable,[4]; total,17 (21.5) n (%)
same,Best overall response: partial response,[4]; total,3 (3.8) n (%)
same,Best overall response: progressive disease,[4]; total,40 (50.6) n (%)
same,Best overall response: stable disease,[4]; total,18 (22.8) n (%)
same,Disease control,[4]; total,22 (27.8) n (%)
same,Median PFS,[4]; total,6.9 weeks
same,Objective response,[4]; total,4 (5.1) n (%)
same,"disease control (CR, PR or SD)","[5]; initial phase Ia, investigator's assessment",26.0%
same,best response PR,[5]; initial phase Ia,3.9%
same,patients with grade ≥3 DLTs,[5]; initial phase Ia,22 of 77
same,maximum tolerated dose (MTD),[5]; schedule A (days 1-21 of 3-week cycle),1.5 mg
same,maximum tolerated dose (MTD),[5]; schedule B (days 1-14 of 3-week cycle),2.5 mg

# Source: publication PMC12005229, “Final results from the phase Ia/Ib study of the novel bromodomain and extra-terminal domain inhibitor, BI 894999, in patients with advanced solid tumors or diffuse large B-cell lymphoma” (ESMO Open, 2025)
